Data set [1] is described as follows: Caco-2 cell permeability assay. The data set is classed as in vitro ADME, human. The settings on record: human, 37° C.; for Papp A→B at 60 min, 10 μM: Caco-2, apical to basolateral; for Papp B→A at 40 min, 10 μM: Caco-2, basolateral to apical. The method, then: The following procedure was used to determine the ability of a test compound to cross Caco-2 cells (human intestinal epithelial cells derived from a colorectal adenocarcinoma). The cells were seeded at 1×10^5 cells/cm^2 in 96-well Multiscreen™ plates (Millipore). Permeability assays were performed with the cells at days 21-25 post-seeding. Cells are typically used for 15 consecutive passages in culture.
This assay can be performed in either the apical to basolateral (A-B) or basolateral to apical (B-A) direction. The test compound was prepared at 10 μM in HBSS-MES (pH 6.5) or HBSS-HEPES (pH 7.4) with a final DMSO concentration of 1%. The working solution was then centrifuged and the supernatant added to the donor side. The assay plate was incubated at 37° C. with gentle shaking for 60 min or 40 min for the A-B or B-A assay, respectively. Samples were aliquoted from the donor side at time zero and the end point, and from the receiver side at the end point.
Reference compounds, propranolol (highly permeable), labetalol (moderately permeable), ranitidine (poorly permeable), and colchicine (P-glycoprotein substrate) were included in each assay.
Samples are analyzed by HPLC-MS/MS using selected reaction monitoring. The HPLC system consists of a binary LC pump with autosampler, a C-18 column, and a gradient.
The apparent permeability coefficient (Papp) of the test compound (Equation 2) and its recovery (Equation 3) are calculated as follows:
[formula] wherein A is the surface area of the cell monolayer (0.11 cm^2), C is concentration of the test compound expressed as peak area, D denotes donor, and R is receiver. “0”, “mid,” and “end” denote time at zero, mid-point, and end of the incubation, respectively. Δt is the incubation time. V is the volume of the donor or receiver.
This is most likely due to non-specific binding or degradation.
Background: Caco-2 cells form a polarised layer with tight junctions and transporters.

The next data set concerns the target Factor Xa (Homo sapiens (Human), UniProt P00742). Kind of data set: Dose response assay for protease inhibitors: Factor Xa. The data set is classed as biochemical. The settings on record: selectivity, Factor Xa over Factor XIa. Summed up:
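Fluorogenic AMC-peptide cleavage in 20 mM Hepes pH 7.4, 150 mM NaCl, 0.02% Tween 20; 100 μM stock substrate dilution (Glp-Pro-Arg-AMC for thrombin/trypsin; Pro-Phe-Arg-AMC or Boc-Leu-Gly-Arg-AMC for Factor Xa). Enzyme diluted to 0.5 nM, added last to two-fold compound series; kinetic read at 30° C, 30 min (Factor Xa 60 min); IC50 fitted.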

Data set [2] is described as follows: Plasma protein binding by equilibrium dialysis. It is filed as in vitro ADME. As to conditions: both sexes, pH 7.4, pooled human plasma, 4 hours at 37° C., read-out: PPB (%). The procedure: The following procedure was used to determine the plasma protein binding of a test compound in pooled plasma from human (mixed gender) via equilibrium dialysis in a 96-well plate format. The dialysate compartment was loaded with phosphate-buffered saline (pH 7.4) and the sample side was loaded with plasma spiked with the test compound at a concentration of 10 μM. After loading, samples were covered and incubated for 4 hours at 37° C. After incubation, each compartment was sampled, diluted with acetonitrile/buffer and centrifuged. The supernatants were analyzed by HPLC-MS/MS. The analyte peak areas obtained from HPLC-MS/MS analysis of each sample were used to calculate protein binding according to the following equation (Equation 4):
[formula] where: AREAp=Peak area of analyte in protein matrix; AREAb=Peak area of analyte in buffer.
The amount measured in the plasma compartment included both free and bound drug, while that on the buffer side represented free drug only; the differences were used to calculate the percentage plasma protein bound. Three reference compounds were tested in each assay: acebutolol, quinidine and warfarin.
A general note: In equilibrium dialysis only unbound substance equilibrates across the membrane.

In a further data set the target is Factor XIa (Homo sapiens (Human), UniProt P03951). Kind of data set: Factor XIa enzyme inhibition assay (dose response, fluorogenic AMC substrate). It is filed as biochemical. The settings on record: read-out: hFXIa IC50. The method in brief:
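Human FXIa at 0.25 nM final with 50 μM final PyroGlu-Pro-Arg-AMC in 20 mM Hepes pH 7.4, 150 mM NaCl, 0.02% Tween 20. Two-fold serial compound dilutions; fluorescence read every minute for 30 min at 30° C. IC50 from a four-parameter Hill fit.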

Where only a bound is given, the exact number is not on record here.

Factor Xa, sequence (P00742 235-488): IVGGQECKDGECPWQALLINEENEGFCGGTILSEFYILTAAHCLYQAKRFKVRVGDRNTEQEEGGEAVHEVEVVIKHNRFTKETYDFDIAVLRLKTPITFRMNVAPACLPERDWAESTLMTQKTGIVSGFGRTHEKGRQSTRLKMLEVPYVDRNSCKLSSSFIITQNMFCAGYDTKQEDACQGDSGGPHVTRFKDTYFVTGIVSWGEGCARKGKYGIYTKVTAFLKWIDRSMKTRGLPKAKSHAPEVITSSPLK
Factor Xa, sequence (P00742 41-179 partner): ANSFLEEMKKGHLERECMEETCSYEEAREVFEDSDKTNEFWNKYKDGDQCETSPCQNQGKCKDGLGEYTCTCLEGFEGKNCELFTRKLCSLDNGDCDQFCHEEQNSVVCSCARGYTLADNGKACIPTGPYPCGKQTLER
Factor XIa, sequence (P03951 388-625): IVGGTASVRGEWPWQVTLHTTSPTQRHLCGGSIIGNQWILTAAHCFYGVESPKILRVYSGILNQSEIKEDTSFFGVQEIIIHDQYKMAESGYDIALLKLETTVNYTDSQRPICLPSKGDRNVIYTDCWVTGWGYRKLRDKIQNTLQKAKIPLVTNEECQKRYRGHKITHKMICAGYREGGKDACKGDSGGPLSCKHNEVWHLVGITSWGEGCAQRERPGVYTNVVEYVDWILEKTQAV
Factor XIa, sequence (P03951 19-387 partner): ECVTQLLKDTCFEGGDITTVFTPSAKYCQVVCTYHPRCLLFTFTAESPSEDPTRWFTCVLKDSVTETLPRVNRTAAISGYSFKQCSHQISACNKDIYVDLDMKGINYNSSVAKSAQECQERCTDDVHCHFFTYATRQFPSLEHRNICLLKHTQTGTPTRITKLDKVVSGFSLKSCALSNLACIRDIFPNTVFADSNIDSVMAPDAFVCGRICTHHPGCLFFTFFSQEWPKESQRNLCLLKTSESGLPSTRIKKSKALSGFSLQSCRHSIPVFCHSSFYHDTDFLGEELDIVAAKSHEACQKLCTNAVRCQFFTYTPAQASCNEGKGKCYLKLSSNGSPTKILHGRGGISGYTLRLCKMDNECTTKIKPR

For orientation: Papp A→B means the apparent permeability from the apical to the basolateral side of a cell layer. A higher Papp A→B goes with fast passage. Usually Papp B→A stands for the apparent permeability from the basolateral to the apical side of a cell layer. In general, IC50 refers to the midpoint of a concentration-inhibition curve. In data set [1], `CC[C@@H](NC(=O)N1C(=O)[C@H](Cc2ccnc(N)c2)[C@H]1C(=O)N(C)c1ccn(C)n1)c1ccccc1` [Compound 1-3, (2S,3R)-3-((2-aminopyridin-4-yl)methyl)-N2-(1-methyl-1H-pyrazol-3-yl)-N1-((R)-1-phenylpropyl)-N2-methyl-4-oxoazetidine-1,2-dicarboxamide] came in with a Papp A→B at 60 min, 10 μM below 10 ×10⁻⁶ cm/s and an apparent permeability from basolateral to apical (Papp B→A) at 40 min, 10 μM of 31 to 50 ×10⁻⁶ cm/s. The “Ratio: FXa/FXIa” value at Factor Xa is “I (“I” indicates > 500)”. Further, the fraction unbound at 4 h, 10 μM in data set [2] lay within 0.1 to 0.5. The IC50 on Factor XIa is below 0.01 µM.

In data set [1], `CC[C@@H](NC(=O)N1C(=O)[C@H](Cc2ccnc(N)c2)[C@H]1C(=O)N(C)c1ccnn1C)c1cccc(Cl)c1` [Compound 1-4, (2S,3R)-3-((2-aminopyridin-4-yl)methyl)-N2-(1-methyl-1H-pyrazol-5-yl)-N1-((R)-1-(3-chlorophenyl)propyl)-N2-methyl-4-oxoazetidine-1,2-dicarboxamide] displayed a Papp A→B at 60 min, 10 μM of 11 to 30 ×10⁻⁶ cm/s and a Papp B→A at 40 min, 10 μM of 11 to 30 ×10⁻⁶ cm/s. In addition, the “Ratio: FXa/FXIa” value at Factor Xa is “I (“I” indicates > 500)”. Also, in data set [2], the fraction unbound at 4 h, 10 μM fell in the range of 0.1 to 0.5. Besides, the IC50 on Factor XIa is below 0.01 µM.

As to `CC[C@@H](NC(=O)N1C(=O)[C@H](Cc2ccnc(N)c2)[C@H]1C(=O)N(C)c1cscn1)c1ccccc1` [Compound 1-8, (2S,3R)-3-((2-aminopyridin-4-yl)methyl)-N2-(4-thiazolyl)-N1-((R)-1-phenylpropyl)-N2-methyl-4-oxoazetidine-1,2-dicarboxamide], in data set [1], the Papp A→B at 60 min, 10 μM is below 10 ×10⁻⁶ cm/s and the Papp B→A at 40 min, 10 μM was 31 to 50 ×10⁻⁶ cm/s. At Factor Xa, the “Ratio: FXa/FXIa” value was “H (“H” indicates 101-1000)”. Also, the fraction unbound at 4 h, 10 μM in data set [2] is 0.1 to 0.5. Moreover, the half-maximal inhibitory concentration (IC50) at Factor XIa is below 0.01 µM.

Regarding `CC[C@@H](NC(=O)N1C(=O)[C@H](Cc2ccnc(N)c2)[C@H]1C(=O)N(C)c1cccs1)c1ccccc1` [Compound 1-10, (2S,3R)-3-((2-aminopyridin-4-yl)methyl)-N2-(thiophen-2-yl)-N1-((R)-1-phenylpropyl)-N2-methyl-4-oxoazetidine-1,2-dicarboxamide], in data set [1], the Papp A→B at 60 min, 10 μM was in the range of 11 to 30 ×10⁻⁶ cm/s and the Papp B→A at 40 min, 10 μM lay within 11 to 30 ×10⁻⁶ cm/s. Moreover, the “Ratio: FXa/FXIa” value at Factor Xa is on record as “H (“H” indicates 101-1000)”. In data set [2], the fraction unbound at 4 h, 10 μM is 0.05 to 0.09. On Factor XIa, the IC50 was below 0.01 µM.

In data set [1], `CC[C@@H](NC(=O)N1C(=O)[C@H](Cc2ccnc(N)c2)[C@H]1C(=O)N(C)c1nccn1C)c1ccccc1` [Compound 1-13, (2S,3R)-3-((2-aminopyridin-4-yl)methyl)-N2-(1-methyl-1H-imidazol-2-yl)-N1-((R)-1-phenylpropyl)-N2-methyl-4-oxoazetidine-1,2-dicarboxamide] yielded a Papp A→B at 60 min, 10 μM below 10 ×10⁻⁶ cm/s and a Papp B→A at 40 min, 10 μM of 11 to 30 ×10⁻⁶ cm/s. Also, the “Ratio: FXa/FXIa” value at Factor Xa is “I (“I” indicates > 500)”. Besides, in data set [2], the fraction unbound at 4 h, 10 μM lay in the range of 0.1 to 0.5. The IC50 at Factor XIa is below 0.01 µM.

In data set [1], `CC[C@@H](NC(=O)N1C(=O)[C@H](Cc2cc(C)nc(N)c2)[C@H]1C(=O)N(C)c1cnn(C)c1)c1cccc(Cl)c1` [Compound 1-15, (2S,3R)-3-((2-amino-6-methylpyridin-4-yl)methyl)-N2-(1-methyl-1H-pyrazol-4-yl)-N1-((R)-1-(3-chlorophenyl)propyl)-N2-methyl-4-oxoazetidine-1,2-dicarboxamide] showed a Papp A→B at 60 min, 10 μM below 10 ×10⁻⁶ cm/s and an apparent permeability from basolateral to apical (Papp B→A) at 40 min, 10 μM of 11 to 30 ×10⁻⁶ cm/s. The “Ratio: FXa/FXIa” value at Factor Xa is on record as “H (“H” indicates 101-1000)”. For the same compound, the fraction unbound at 4 h, 10 μM in data set [2] lay in the range of 0.1 to 0.5. Moreover, on Factor XIa, the IC50 was 0.01 to 0.1 µM.

On to “(2S,3R)-3-((2-amino-6-methylpyridin-4-yl)methyl)-N2-(1-methyl-1H-imidazol-2-yl)-N1-((R)-1-(3-fluorophenyl)propyl)-N2-methyl-4-oxoazetidine-1,2-dicarboxamide [Compound 1-120]”, for which the “Ratio: FXa/FXIa” value on Factor Xa was “I (“I” indicates > 500)”. At Factor XIa, the IC50 was below 0.01 µM.
